Results on 1 compound are retold here after US20050014690A1, “Styryl acrylonitrile compounds and their use to promote myelopoiesis” (priority 2001, published 2005).

“Also recorded” adds a separate entry of the source.

The subject of series [1] is normal bone marrow cells. Put plainly: CFU-GEMM colony assay, normal bone marrow, compound present for 14 days. In kind it is cell-based, human. The procedure: Treatment of normal bone marrow in culture with CR4. The CFU-GEMM assay was performed according to Fauser and Messner (Blood, 52(6) 1243-8,1978) and Messner and Fausser (Blut 41(5) 327-33, 1980) with some variations. In brief, heparinized bone marrow cells were layered over Percoll (1.077 gm/ml) and centrifuged at 400 g at 4° C. for 10 minutes to remove neutrophils and RBCs. The fractionated BM cells at 2×10^5 cells/ml were cultured in IMDM containing 0.9% (vol/vol) methylcellulose supplemented with 30% FCS or normal human plasma, a cocktail of cytokines containing G-CSF (10 ng/ml), IL-3 (40 U/ml), MGF (50 ng/ml), Erythropoietin (2u/ml) or TPO (10 ng/ml) and 5×10^−5M μ-2-mercaptoethanol. CR4 was added to the cells in concentrations indicated in FIG. 1 and the culture mixture was plated in 1 ml volumes into 35 mm petri dishes and incubated at 37° C., 5% CO2 in a humidified atmosphere. All cultures were evaluated at 14 days for the number of BFU-E colonies (defined as aggregates of more than 500 hemaglobinized cells or, 3 or more erythroid subcolonies), CFU-C colonies (defined as granulocyte or monocyte-macrophage cells or both), and CFU-GEMM colonies (a mixed population comprising of all elements). All control samples in this and other examples were treated with the matching concentration of the solvent (DMSO) for the compounds in the same medium or in the case of Example 21, PBS, as indicated. CFU-C stimulation with CR4 dose response. Bone marrow cells were prepared as in Example 15. CR4 was added to the cells at 10 or 20 μM. The culture mixture was plated in 1 ml volumes into 35 mm petri dishes and incubated at 37° C., 5% CO2 in a humidified atmosphere. All cultures were evaluated at 14 days for the number of CFU-C colonies (defined as granulocyte or monocyte-macrophage cells or both). […] Stimulation of CFU-C colony formation by CR11. Bone marrow cells were prepared as in Example 15. CR11 was added to the cells at 10 or 20 μM. The culture mixture was plated in 1 ml volumes into 35 mm petri dishes and incubated at 37° C., 5% […] in a humidified atmosphere. All cultures were evaluated at 14 days for the number of CFU-C colonies. […] CFU-C stimulation with CR19 dose response. Bone marrow cells were prepared as in Example 15. The culture mixture was plated in 1 ml volumes into 35 mm petri dishes and incubated at 37° C., 5% CO2 in a humidified atmosphere. All cultures were evaluated at 14 days for the number of BFU-E and CFU-C colonies.

Series [2] concerns normal bone marrow cells. The series is described as follows: CFU-C colony formation after short high dose exposure (2.5-5 hours), wash-out, 14 day culture. It counts as cell-based, human. The procedure:
Stimulation of CFU-C colony formation with high dose CR4 for 2.5 hours. Bone marrow cells were layered over Percoll and centrifuged at 400 g at 4° C. for 10 minutes to remove neutrophils and RBCs. The cells were resuspended at 1×10^6/ml in complete medium with or without 50 μM CR4. The cells were incubated with the compound for two and a half hours at 37° C., 5% CO2. At the end of this period the cells were thoroughly washed in medium to remove CR4 and then cultured at 2×10^5 cells/ml in IMDM containing 0.9% (vol/vol) methylcellulose supplemented with 30% FCS or normal human plasma, and a cocktail of cytokines containing G-CSF (10 ng/ml), IL-3 (40 U/ml,), MGF (50 ng/ml), Erythropoietin or TPO and 5×10^−5M μ-2-mercaptoethanol. The culture mixture was plated in 1 ml volumes into 35 mm petri dishes and incubated at 37° C., 5% CO2 in a humidified atmosphere. All cultures were evaluated at 14 days for the number of CFU-C colonies. […] Stimulation of CFU-C colony formation with high dose CR4 for 2.5 and 5 hours. Bone marrow cells were prepared and treated as in Example 19, except exposure times of 2.5 and 5 hours were evaluated. The culture mixture was plated in 1 ml volumes into 35 mm petri dishes and incubated at 37° C., 5% CO2 in a humidified atmosphere. All cultures were evaluated at 14 days for the number of CFU-GM colonies (defined as granulocyte or macrophage cells or both). […] Stimulation of CFU-C colony formation with high dose CR4—two independent bone marrow samples (A&B). Bone marrow cells were prepared and treated as in Example 19, except that CR4 concentrations of 25 and 50 μM were evaluated. The culture mixtures was plated in 1 ml volumes into 35 mm petri dishes and incubated at 37° C., 5% CO2 in a humidified atmosphere. All cultures were evaluated at 14 days for the number of CFU-C colonies.

Series [3] concerns mice. Put plainly: Peripheral white blood cell count in mice. To be noted: SCI mouse model; similar kinetics to G-CSF treated mice. In kind it is in vivo. The procedure: Promotion of peripheral white blood cell count by CR11. Mice were injected daily with CR11. 250 μl of 400 μM CR11 was injected in PBS. Controls were injected with matching concentrations of CR11 solvent (DMSO) in PBS, or recombinant human G-CSF. After 14 and 17 days blood peripheral blood samples were taken and white blood cell counts determined. Results from each group were averaged.

The test system of series [4] is mice. Put plainly: Granulocytes in the spleen of treated mice. It counts as in vivo.
Another series relates to transformed cell. The series is described as follows: Transformed cell growth. In kind it is cell-based.

For `N#C/C(=C\C=C\c1ccc(O)c(O)c1)C(=O)NCc1ccccc1` [CR4, (E,E)-2-(Benzylaminocarbonyl)-3-(3,4-dihydroxystyryl)acrylonitrile], the CFU-C colony formation result in the series with normal bone marrow cells [1] (10 μM, 14 days) is “significantly stimulated; also recorded: significantly increased”; with normal bone marrow cells [1] (20 μM, 14 days), “equivalent to the control”; in the series on normal bone marrow cells [2] (5 μM (so in the source), five hours exposure, FIG. 6) it was “increased significantly”; in the series with normal bone marrow cells [2] (5 μM (so in the source), two and a half hours exposure, FIG. 6) it was “increased significantly”; in the series with normal bone marrow cells [2] (25 μM, five hours exposure, bone marrow sample A, FIG. 7A) it was “increased significantly”; in the series with normal bone marrow cells [2] (50 μM, five hours exposure, bone marrow sample A, FIG. 7A), “increased significantly”. Also, the CFU-C colony formation entry is on record as “increased significantly” in the series on normal bone marrow cells [2] (50 μM, five hours exposure, other bone marrow sample, FIG. 7B); “increased significantly” in the series on normal bone marrow cells [2] (50 μM, two and a half hours exposure, FIG. 5). Also, in the series with normal bone marrow cells [1] (10 μM, 14 days, FIG. 1), the BFU-E colony formation result was “some inhibition”. In the series on normal bone marrow cells [1] (14 days, until concentrations of 20 μM or greater), the “toxicity to normal bone marrow cells” value is recorded as “minimal toxicity”. In the series with normal bone marrow cells [1] (concentrations from about 0.6 to 10 μM, 14 days, FIG. 1), the CFU-C colony numbers entry was “stimulated”. Besides, in the series with normal bone marrow cells [1] (doses up to 5 μM, 14 days, FIG. 1), the “toxicity upon normal bone marrow” value was “negligible toxicity”. Also, the “number of CFU-GM or CFU-C colonies” value in the series on normal bone marrow cells [1] (in vitro assays of human bone marrow cell growth, continual exposure for 14 days, about 1-20 μM) is “effective in increasing”. Moreover, in the series on normal bone marrow cells [2] (25-50 μM for 2-5 hours), the “myelopoiesis when the cells are cultured” value is recorded as “increased myelopoiesis”. Moreover, the “other normal bone marrow cells” value in the series with normal bone marrow cells [2] (same doses (25-50 μM) over the same period (2-5 hours)) is “relatively unaffected”. The “white blood cells in the peripheral blood” value with mice [3] is given as “Increased numbers”. Besides, in the series on mice [4] (daily injection, SCI mouse model), the normal splenic granulocytes result was “tremendous increase”. Further, the “non-specific damage to the animal” value with mice [4] (doses required to promote myelopoiesis, one month of continual administration) is reported as “did not result in detectable non-specific damage”. In addition, in the series with mice [4] (mice, one month, subcutaneous osmotic pump, theoretical 200 μg/kg/hr, FIG. 10), the “granulocytes in the spleen” value is “Increase in granulocytes”. The transformed cell growth entry in the series on transformed cell is listed as “do not promote”.
